Measurements reported in patent US20090163413A1, “DENTAL PRODUCTS COMPRISING BONE GROWTH ENHANCING PEPTIDE” (Acologix., Inc., priority 2000, published 2009).
No end group written: not given here.

Tested on: calvaria from 4-days-old mice
Assay: Fetal mouse calvarial assay (mouse calvarial organ culture, histomorphometrical analysis of new bone area)
Format: cell-based
Details: assay terminated at day 7, FGF-1 as positive control
Method: FGF-1 was purchased from Peprotech Inc. (Rocky Hill, N.J.). RGD-1, 2, 3, 4, 5 and 6 (referred to here as D-00001, D-00002, D-00003, D-00004, D-00005 and D-00006) were provided by Dr. Nomizu (Hokkaido University, Japan).
Pregnant ICR mice were purchased from SLC Japan Co. Ltd. (Shizuoka, Japan).
Mouse calvarial organ culture was performed as described in Mundy G et al. Science 286: 1946-1949, 1999 and Traianedes K et al. Endocrinology 139: 3178-3184, 1998. The calvaria from 4-days-old mice were excised and cut in half along the sagittal suture. Each half of the calvaria was placed on a stainless steel grid in a 12-well tissue culture dish (Asahi Glass Techno Corp., Funabashi, Japan). Each well contained 1.5 ml of BGj medium (Sigma, St. Louis, Mo.) supplemented with 0.1% bovine serum albumin (Sigma) and each compound. FGF-1 was used as a positive control as described by Mundy et al. The medium was changed at day 1 and 4, and the assay was terminated at day 7.
Calvaria was fixed with 10% neutral-buffered formalin, decalcified with 4.13% EDTA and embedded in paraffin. […] sections were made and stained with hematoxylin and eosin. New bone area was measured using Image-Pro Plus (Media Cybernetics, Silver Spring, Md.).
The six peptides of Example 1 were tested for their ability to enhance bone growth with the tests being carried out as described above in Example 2.

Row | Sequence | ability to enhance bone growth (new bone area)
1 | TDLQERGDNDISPFSGDGQPFKD [D-00006] | best results
2 | ERGDNDISPFSGDGQ (ERGDNDISPFSGDGQ-NH2) [D-00004] | best results
